biological target: T1, DLK (Homo sapiens, UniProt Q12852); details: read-out: DLK (Ki) μM; TR-FRET; 5 nM GST-tagged DLK (catalytic domain aa 1-520), 40 nM HIS-MKK4 K131M substrate, 30 μM ATP, 60 minutes
T1 sequence (Q12852 1-520): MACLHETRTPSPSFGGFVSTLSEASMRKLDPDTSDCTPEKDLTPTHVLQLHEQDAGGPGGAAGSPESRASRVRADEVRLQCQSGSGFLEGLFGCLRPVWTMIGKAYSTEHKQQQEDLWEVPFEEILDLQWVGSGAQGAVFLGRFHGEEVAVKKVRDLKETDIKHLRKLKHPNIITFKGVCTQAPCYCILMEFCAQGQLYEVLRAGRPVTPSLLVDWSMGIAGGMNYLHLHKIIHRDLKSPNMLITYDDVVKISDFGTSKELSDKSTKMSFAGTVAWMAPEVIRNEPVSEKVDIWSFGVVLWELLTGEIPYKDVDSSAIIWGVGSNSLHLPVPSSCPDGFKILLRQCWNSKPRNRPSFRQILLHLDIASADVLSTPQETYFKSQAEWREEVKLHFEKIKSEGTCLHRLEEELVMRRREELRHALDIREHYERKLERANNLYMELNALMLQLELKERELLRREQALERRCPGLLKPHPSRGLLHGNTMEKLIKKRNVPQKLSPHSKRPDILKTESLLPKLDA

Q: How did the Ki turn out when `CC(C)n1nc(-c2cnc3[nH]cc(Cl)c3c2)cc1C1CCN(C2COC2)CC1` [Compound 72, 3-chloro-5-(1-isopropyl-5-(1-(oxetan-3-yl)piperidin-4-yl)-1H-pyrazol-3-yl)-1H-pyrrolo[2,3-b]pyridine] was run?
A: 0.015 µM

Q: With `CCOc1cc(-c2cc(C3CCN(C4COC4)CC3)n(C(C)C)n2)cnc1N` [Compound 83, 3-ethoxy-5-(1-isopropyl-5-(1-(oxetan-3-yl)piperidin-4-yl)-1H-pyrazol-3-yl)pyridin-2-amine] as the compound, how does the Ki read?
A: 0.39 µM

Q: `CC(C)n1nc(-c2cnc3[nH]cc(C(F)(F)F)c3c2)cc1C1CCN(C)CC1` [Compound 40, 5-(1-isopropyl-5-(1-methylpiperidin-4-yl)-1H-pyrazol-3-yl)-3-(trifluoro-methyl)-1H-pyrrolo[2,3-b]pyridine] was tested. Which Ki did it give?
A: 0.00017 µM

Q: How did the Ki turn out when `Nc1ncc(-c2cc([C@H]3[C@@H]4CN(C5COC5)C[C@@H]43)n(C3CCC3)n2)cc1Cl` [Compound 147, 3-chloro-5-(1-cyclobutyl-5-((1R,5S,6r)-3-(oxetan-3-yl)-3-azabicyclo[3.1.0]hexan-6-yl)-1H-pyrazol-3-yl)pyri-din-2-amine] was run?
A: 0.018 µM

Q: For `CC(C)Oc1cc(-c2cc(C3CCN(C4COC4)CC3)n(C3CCC(F)(F)C3)n2)cnc1N` (stereo not drawn) [Compound 86, 5-(1-(3,3-difluorocyclopentyl)-5-(1-(oxetan-3-yl)piperidin-4-yl)-1H-pyra-zol-3-yl)-3-isopropoxypyridin-2-amine], which Ki is on record?
A: 0.91 µM

Q: For `CC(C)Oc1cc(-c2cc([C@H]3[C@@H]4CN(C5COC5)C[C@@H]43)n(C3CCCC3)n2)cnc1N` [Compound 156, 5-(1-cyclopentyl-5-((1R,5S,6r)-3-(oxe-tan-3-yl)-3-azabicyclo[3.1.0]hexan-6-yl)-1H-pyrazol-3-yl)-3-isopropoxy-pyridin-2-amine], which Ki is on record?
A: 0.032 µM

Q: With `Cc1c[nH]c2ncc(-c3cc(C4CCOC4)n(C4CC(F)(F)C4)n3)cc12` (stereo not drawn) [Compound 19, 5-(1-(3,3-difluorocyclobutyl)-5-(tetrahydrofuran-3-yl)-1H-pyrazol-3-yl)-3-methyl-1H-pyrrolo[2,3-b]pyridine] as the compound, how does the Ki read?
A: 0.082 µM

Q: How did the Ki turn out when `CC(=O)N1CCC(c2cc(-c3cnc4[nH]cc(C)c4c3)nn2C(C)C)CC1` [Compound 49, 1-(4-(1-isopropyl-3-(3-methyl-1H-pyrrolo[2,3-b]pyridin-5-yl)-1H-pyrazol-5-yl)piperidin-1-yl)ethanone] was run?
A: 0.019 µM

Q: With `CC(C)n1nc(-c2cnc(N)c(C(F)F)c2)cc1[C@H]1[C@@H]2CN(C3COC3)C[C@@H]21` [Compound 158, 3-(difluoromethyl)-5-(1-isopropyl-5-((1R,5S,6r)-3-(oxetan-3-yl)-3-azabi-cyclo[3.1.0]hexan-6-yl)-1H-pyrazol-3-yl)pyridin-2-amine] as the compound, how does the Ki read?
A: 0.035 µM

Q: How did the Ki turn out when `COCCN1C[C@@H]2[C@H](C1)[C@H]2c1cc(-c2cnc(N)c(Cl)c2)nn1CC(C)C` [Compound 120, 3-chloro-5-(1-isobutyl-5-((1R,5S,6r)-3-(2-methoxyethyl)-3-azabicyclo[3.1.0]hexan-6-yl)-1H-pyrazol-3-yl)pyri-din-2-amine] was run?
A: 0.03 µM

Q: How did the Ki turn out when `Nc1ncc(-c2cc([C@H]3[C@@H]4CN(C5COC5)C[C@@H]43)n(C3CCCC3)n2)cc1C1CC1` [Compound 139, 5-(1-cyclopentyl-5-((1R,5S,6r)-3-(oxe-tan-3-yl)-3-azabicyclo[3.1.0]hexan-6-yl)-1H-pyrazol-3-yl)-3-cyclopro-pylpyridin-2-amine] was run?
A: 0.037 µM

Q: With `N#Cc1cc(-c2cc([C@H]3[C@@H]4CN(C5COC5)C[C@@H]43)n(C3CCCC3)n2)cnc1N` [Compound 138, 2-amino-5-(1-cyclopentyl-5-((1R,5S,6r)-3-(oxetan-3-yl)-3-azabicyclo[3.1.0]hexan-6-yl)-1H-pyrazol-3-yl)nicoti-nitrile] as the compound, how does the Ki read?
A: 0.031 µM

Q: How did the Ki turn out when `CC(C)n1nc(-c2cnc3[nH]cc(C(F)(F)F)c3c2)cc1C1CCN(C2CCC2)CC1` [Compound 101, 5-(5-(1-cyclobutylpiperidin-4-yl)-1-iso-propyl-1H-pyrazol-3-yl)-3-(trifluoro-methyl)-1H-pyrrolo[2,3-b]pyridine] was run?
A: 0.001 µM

Q: Which Ki does the source give for `CCc1c[nH]c2ncc(-c3cc(C4CCOC4)n(C4CC(F)(F)C4)n3)cc12` (stereo not drawn) [Compound 20, 5-(1-(3,3-difluorocyclobutyl)-5-(tetra-hydrofuran-3-yl)-1H-pyrazol-3-yl)-3-ethyl-1H-pyrrolo[2,3-b]pyridine] here?
A: 0.025 µM

Q: Which Ki does the source give for `FC1(F)CC(n2nc(-c3cnc4[nH]cc(C(F)(F)F)c4c3)cc2C2CCOCC2)C1` [Compound 38, 5-(1-(3,3-difluroocyclobutyl)-5-(tetra-hydro-2H-pyran-4-yl)-1H-pyrazol-3-yl)-3-(trifluoromethyl)-1H-pyrrolo [2,3-b]pyridine] here?
A: 0.058 µM

Q: `Nc1ncc(-c2cc([C@H]3[C@@H]4CN(C5COC5)C[C@@H]43)n(C3CCC3)n2)cc1OC(F)(F)F` [Compound 163, 5-(1-cyclobutyl-5-((1R,5S,6r)-3-(oxe-tan-3-yl)-3-azabicyclo[3.1.0]hexan-6-yl)-1H-pyrazol-3-yl)-3-(trifluorometh-oxy)pyridin-2-amine] was tested. Which Ki did it give?
A: 0.013 µM

Q: Which Ki does the source give for `CC(C)n1nc(-c2cnc(N)c(C(F)(F)F)c2)cc1[C@H]1[C@@H]2CN(CC(C)(C)O)C[C@@H]21` [Compound 128, 1-((1R,5S,6r)-6-(3-(6-amino-5-(trifluoro-methyl)pyridin-3-yl)-1-isopropyl-1H-pyrazol-5-yl)-3-azabicyclo[3.1.0]hexan-3-yl)-2-methylpropan-2-ol] here?
A: 0.011 µM

Q: With `Nc1ncc(-c2cc(C3CCOC3)n(C3CC(F)(F)C3)n2)cc1Cl` (stereo not drawn) [Compound 25, 3-chloro-5-(1-(3,3-difluorocyclobut-yl)-5-(tetrahydrofuran-3-yl)-1H-pyra-zol-3-yl)pyridin-2-amine] as the compound, how does the Ki read?
A: 0.55 µM

Q: With `COCCN1C[C@@H]2[C@H](C1)[C@H]2c1cc(-c2cnc(N)c(Cl)c2)nn1CC1CC1(F)F` (stereo partly drawn) [Compound 121, 3-chloro-5-(1-((2,2-difluorocyclopro-pyl)methyl)-5-((1R,5S,6r)-3-(2-meth-oxyethyl)-3-azabicyclo[3.1.0]hexan-6-yl)-1H-pyrazol-3-yl)pyridin-2-amine] as the compound, how does the Ki read?
A: 0.09 µM

Q: With `Cc1c[nH]c2ncc(-c3cc(C4CCN(C5COC5)CC4)n(C(C)C)n3)cc12` [Compound 69, 5-(1-isopropyl-5-(1-(oxetan-3-yl)pipe-ridin-4-yl)-1H-pyrazol-3-yl)-3-meth-yl-1H-pyrrolo[2,3-b]pyridine] as the compound, how does the Ki read?
A: 0.0037 µM

Q: `Nc1ncc(-c2cc([C@H]3[C@@H]4CN(C5COC5)C[C@@H]43)n(CC3CC3)n2)cc1C(F)F` [Compound 169, 5-(1-(cyclopropylmethyl)-5-((1R,5S,6r)-3-(oxetan-3-yl)-3-azabicyclo[3.1.0]hexan-6-yl)-1H-pyrazol-3-yl)-3-(di-fluoromethyl)pyridin-2-amine] was tested. Which Ki did it give?
A: 0.041 µM

Q: With `CC(C)n1nc(-c2cnc(N)c(C(F)(F)F)c2)cc1[C@H]1[C@@H]2CN(CCC#N)C[C@@H]21` [Compound 127, 3-((1R,5S,6r)-6-(3-(6-amino-5-(trifluoro-methyl)pyridin-3-yl)-1-isopropyl-1H-pyrazol-5-yl)-3-azabicyclo[3.1.0]hexan-3-yl)propanenitrile] as the compound, how does the Ki read?
A: 0.0059 µM

Q: Which Ki does the source give for `CC(C)n1nc(-c2cnc(N)c(C(F)(F)F)c2)cc1C1CCN(C2CCC2)CC1` [Compound 102, 5-(5-(1-cyclobutylpiperidin-4-yl)-1-isopropyl-1H-pyrazol-3-yl)-3-(trifluoromethyl)pyridin-2-amine] here?
A: 0.034 µM

Q: `CS(=O)(=O)c1cc(-c2cc([C@H]3[C@@H]4CN(C5COC5)C[C@@H]43)n(C3CCCC3)n2)cnc1N` [Compound 155, 5-(1-cyclopentyl-5-((1R,5S,6r)-3-(oxe-tan-3-yl)-3-azabicyclo[3.1.0]hexan-6-yl)-1H-pyrazol-3-yl)-3-(methyl-sulfonyl)pyridin-2-amine] was tested. Which Ki did it give?
A: 0.3 µM

Q: How did the Ki turn out when `CC(=O)N1CC(c2cc(-c3cnc4[nH]cc(C)c4c3)nn2CC2CC2)C1` [Compound 9, 1-(3-(1-(cyclopropylmethyl)-3-(3-meth-yl-1H-pyrrolo[2,3-b]pyridin-5-yl)-1H-pyrazol-5-yl)azetidin-1-yl)ethan-one] was run?
A: 0.076 µM

Q: For `CC(=O)N1CCC(c2cc(-c3cnc4[nH]cc(C)c4c3)nn2C)CC1` [Compound 47, 1-(4-(1-methyl-3-(3-methyl-1H-pyrro-lo[2,3-b]pyridin-5-yl)-1H-pyrazol-5-yl)piperidin-1-yl)ethanone], which Ki is on record?
A: 0.047 µM

Q: `COCCN1C[C@@H]2[C@H](C1)[C@H]2c1cc(-c2cnc(N)c(Cl)c2)nn1C(C)C` [Compound 118, 3-chloro-5-(1-isopropyl-5-((1R,5S,6r)-3-(2-methoxyethyl)-3-azabicyclo[3.1.0]hexan-6-yl)-1H-pyrazol-3-yl) pyridin-2-amine] was tested. Which Ki did it give?
A: 0.034 µM

Q: How did the Ki turn out when `CC(C)(C)n1nc(-c2cnc(N)c(C(F)(F)F)c2)cc1[C@H]1[C@@H]2CN(C3COC3)C[C@@H]21` [Compound 167, 5-(1-(tert-butyl)-5-((1R,5S,6r)-3-(oxe-tan-3-yl)-3-azabicyclo[3.1.0]hexan-6-yl)-1H-pyrazol-3-yl)-3-(trifluorometh-yl)pyridin-2-amine] was run?
A: 0.027 µM

Q: `Cc1c[nH]c2ncc(-c3cc(C4CCN(C)C(=O)C4)n(C4CC(F)(F)C4)n3)cc12` (stereo not drawn) [Compound 42, 4-(1-(3,3-difluorocyclobutyl)-3-(3-meth-yl-1H-pyrrolo[2,3-b]pyridin-5-yl)-1H-pyrazol-5-yl)-1-methylpiperidin-2-one] was tested. Which Ki did it give?
A: 0.25 µM

Q: How did the Ki turn out when `CC(C)n1nc(-c2cnc(N)c(C(F)(F)F)c2)cc1C1CCN(C)CC1` [Compound 41, 5-(1-isopropyl-5-(1-methylpiperidin-4-yl)-1H-pyrazol-3-yl)-3-(trifluoromethyl)pyridin-2-amine] was run?
A: 0.045 µM
